{"source": "patent US4442093A", "about": "“Method for administering 24,25-dihydroxycholecalciferol to persons suffering from hypercalcemia” (Kureha Kagaku Kogyo Kabushiki Kaisha, priority 1981, dated 1984)", "key": {"[1]": {"system": "mononucleates (lymphocytes) of peripheral blood", "assay": "Blastoid-transformation of rat lymphocytes in peripheral blood, 3H-TdR uptake (Example 13)", "assay_type": "in vivo", "protocol": "The effect of the present compound on the blastoid-transformation of rat lymphocytes in the peripheral blood was examined as follows: After mixing each of the blood specimens taken from the respective rats of the four groups in Example 11 added with heparin and RPMI-1640 culture medium at a weight ratio of 1:1, the mixture was added to Ficoll-Paque solution, and the thus obtained mixture was subjected to centrifugal separation at 400 G for 20 min to collect the layer of mononucleates. After washing the thus collected mononucleates three times with PRMI-1640 culture medium (in a liquid state), the washed mononucleates were suspended into RPMI-1640 culture medium added with 10% by weight of calf serum to be in concentration of 1.5×10^6 cells/ml. Hundred microliters of the thus prepared suspension was placed in the pit of Pharcon microtest II plate, and after adding a substance promoting cell division (hereinafter referred to as mitogen) and RPMI-1640 culture medium added with 10% by weight of calf serum to the thus placed suspension to make the total volume 200 microliters, the thus prepared mixture was incubated for 72 hours under a gas (a 95:5 by volume mixture of air and carbon dioxide saturated with moisture) flow at 37° C. ^3 H-methylthymidine of specific activity of 5 Ci/mmol was added to the mixture during incubation at the time 24 hours before the incubation was over in an amount corresponding to 0.5 micro Ci. After the incubation was over, the cells in the culture were collected by filtering the cultured mixture, and the amount of radioactive isotope uptaken into the cells was determined by a liquid scintillation counter. For reference, the mitogen used in the present test is concanavalin A for T-cell or lipopolysaccharide for B-cell."}, "[2]": {"system": "calcium level in serum", "assay": "Serum calcium in patient with hyperparathyroidism accompanied by hypercalcemia (Example 6)", "assay_type": "in vivo, human", "conditions": "person seventeen, 10 µg/day oral", "excerpt": "The thus prepared capsule composition was tentatively applied to the following two cases of human hyperparathyroidism accompanied by hypercalcemia:\nTo patient seventeen suffering from hyperparathyroidism accompanied by hypercalcemia, one of the capsule composition prepared as above containing 1 microgram of the active ingredient in one capsule was orally administered at a daily dose of 10 micrograms of 24R,25-(OH)2 -D3 for continuous 4 days."}, "[3]": {"system": "ulcer found on the duodenum", "assay": "Healing of acetic acid induced duodenal ulcer (Example 10)", "assay_type": "in vivo, male rats", "conditions": "20 µg/kg/day oral, 10 days", "protocol": "Fourty five male rats of body weight of 240 to 260 g were equally divided into three groups, each consisting of 15 animals, and they were subjected to an operation following the method of Okabe et al. (refer to Amer. J. Dig. Dia., 16, 277, 1971), in which under anesthesia by ether, a circular frame made of a metal was placed on the serosa 5 to 7 mm from the pylorus and 0.06 ml of gracial acetic acid was poured onto the round part within the frame and after 30 sec, the acetic liquid was removed with the frame.\nThe thus operated rats of the first group were administered orally with a suspension of […] of 24R,25-(OH)2 -D3 in Panacete®810 containing 0.2% by weight of ethanol once a day for continuous 10 days from the third day of the operation at a daily dose rate of 20 micrograms of 24R,25-(OH)2 -D3 /kg. To the thus operated rats of the second group (control), only Panacete®810 was orally administered at a daily dose rate of 2 ml/kg for continuous 10 days.\nThe thus operated rats of the third group were used in the comparative test. Namely, they were treated in the same manner as those of the first group except for administration of gefarnate (3,7-dimethyl-2,6-octadienyl-5,9,13-trimethyl-4,8,12-tetradecatrienoate) at a daily dose rate of 20 microgram/kg body weight in stead of 24R,25-(OH)2 -D3 in the first group.\nAfter finishing the final administration, all the rats were sacrificed by ether and their duodenum was taken out for autopsy. The length and the width of the ulcer found on the duodenum were measured, and their product with a unit of mm^2 was taken and named as the ulcer coefficient. The rate of healing of the ulcer was calculated by the following formula: [formula] wherein C is the ulcer coefficient of control and U is the ulcer coefficient of the group to which the present compound was administered."}, "[4]": {"system": "calcium level in serum", "assay": "Serum calcium in rats made hypercalcemic with parathyroid hormone (Example 3)", "assay_type": "in vivo, male Wistar rats", "conditions": "50 µg/kg i.p., PTH-treated", "protocol": "To 4 subgroups of male Wistar rats of 150±40 g of body weight (a subgroup consisting of 5 animals), parathyroid hormone (PTH, Sigma Bovine parathyroid TCA powder, 134 USPU/mg) dissolved in a physiological saline solution containing 4% by weight of gelatine was subcutaneously injected at a dose rate of 150 USPU/100 g body weight, the volume injected being 0.4 ml/100 g body weight to prepare the rats artificially suffering from hypercalcemia.\nThe rats of the second group, after one hour of the administration of the parathroid hormone, were intraperitoneally administered only with ethanol, and treated as in the first group for taking the blood specimen."}, "[5]": {"system": "thymic cells", "assay": "Pattern of the size of thymic cells by FACS (Example 12)", "assay_type": "in vivo, rats", "conditions": "100 µg/kg/day oral 12 days with puromycin aminonucleoside", "protocol": "After feeding the rats (the same number and the same grouping) of the same strain and treating them in the same manner as in Example 11, their thymus was resected, and an analysis of the pattern of the size of the thymic cells was carried out while using Fluorescence Activated Cell Sorter (FACS II, made by Becton-Dickinson Co.) as follows:\nAfter loosing the resected thymus in phosphate buffer solution sufficiently with a pincette, pipetting well and passing the mixture through a standard #200 Tyler stainless steel mesh, the filtrate was treated with an aqueous 0.83% by weight ammonium chloride buffer solution containing tris-hydroxyaminomethane to carry out hemolysis of the erythrocytes intermingled therein followed by three times of washing with the phosphate buffer solution. After adjusting the concentration of the thus obtained thymic cell to 5×10^6 cells/ml with the addition of the phosphate buffer solution, the abovementioned analysis was carried out. The ratio of the number of living thymic cells to the total number of the thus obtained thymic cells was confirmed to be higher than 95% after staining with trypan blue and counting under microscope."}, "[6]": {"conditions": "100 µg/kg/day oral 12 days with puromycin aminonucleoside"}}}
{"molecule": "C=C1CC[C@H](O)C/C1=C/C=C1\\CCC[C@]2(C)[C@@H]([C@H](C)CC[C@@H](O)C(C)(C)O)CC[C@@H]12", "note": "[24R,25-(OH)2 -D3]", "values": [{"measurement": "Uptake of 3H-TdR in presence of Concanavalin A", "setting": "[1]; [6]", "value": "3995 ± 412", "unit": "cpm"}, {"measurement": "Uptake of 3H-TdR in presence of Lipopolysaccharide", "setting": "[1]; [6]", "value": "3568 ± 372", "unit": "cpm"}, {"measurement": "Number of mononucleate (ratio, first group = 1.00)", "setting": "[1]; po, 0.1 mg/kg, 288 h", "value": "0.68 ± 0.17"}, {"measurement": "calcium level in serum after administration for 4 days", "setting": "[2]", "value": 10.8, "unit": "mg/dL"}, {"measurement": "ulcer coefficient", "setting": "[3]", "value": 1.5, "unit": "mm^2"}, {"measurement": "rate of ulcer healing", "setting": "[3]; vs control", "value": 80, "unit": "%"}, {"measurement": "Calcium level in serum", "setting": "[4]; after 2 hours", "value": "12.5 ± 0.5", "unit": "mg/dL"}, {"measurement": "Calcium level in serum", "setting": "[4]; after 5 hours", "value": "10.5 ± 0.5", "unit": "mg/dL"}, {"measurement": "number ratio of cells a little larger than normal cell to total thymic cells", "setting": "[5]", "value": "the same as that of the control group"}]}
